Experimental data as given in patent publication US20240016765A1, “Use of an alkaloid compound in the preparation of products for the prevention and/or treatment of cardiac damage” (NORTHWEST INSTITUTE OF PLATEAU BIOLOGY, CHINESE ACADEMY OF …, priority 2021, published 2024).

How the values were obtained:
Type in all cases: cell-based
Cleaved-Caspase-3 = experiment: Western blot of Cleaved-Caspase-3 in DOX-treated H9c2 cardiomyocytes; settings: FIG. 3
Description: (§1) (2) Incubate H9c2 cells with alkaloid compound I for 1 hour, then add […] DOX and incubate for 24 hours; extract the proteins, proceed with hydrolysis and collect the resulting solution, centrifuge at 12000 rpm for 15 minutes, collect the supernatant and discard the precipitate, store under −80° C. until analysis. Perform SDS-PAGE electrophoresis (Stepl voltage set at 80V for 30 minutes, followed by Step2 voltage set at 120V for 180 minutes), using 5% concentrated gel. Carry out membrane transfer using a PVDF membrane, with a current of 80 mA for 30 minutes. Then, conduct the closure and hybridization by using 5% skim milk powder for 1 hour of closure, followed by overnight incubation with primary antibody, and 1-2 hours of incubation with secondary antibody at room temperature with gentle shaking. Finally, visualize the proteins by using ECL reagent and observe the expression of Caspase-3 and p-JNK/JNK proteins using a gel imaging system.

p-JNK = experiment: Western blot of p-JNK/JNK in DOX-treated H9c2 cardiomyocytes; settings: FIG. 4; for p-JNK expression level compared with DOX model group: 1 h incubation, then DOX 24 h
Description: as §1

H9c2 cardiomyocytes [1] = experiment: Toxicity of alkaloid compound I on H9c2 cardiomyocytes (MTT colorimetric method); settings: 24 h incubation, FIG. 1
Description: H9c2 cells are incubated with different concentrations (0.1 μM, 1 μM, 5 μM, 10 μM, 20 μM, 40 μM, 80 μM, 160 μM) of alkaloid compounds I for 24 h, and then the toxic effects of the alkaloid compounds on cardiomyocytes are evaluated by MTT colorimetric method.

H9c2 cardiomyocytes [2] = experiment: Effect on DOX-induced H9c2 cardiomyocyte toxicity (MTT colorimetric assay); settings: 1 h pre-incubation, then 2.5 μM DOX 24 h, FIG. 2
Description: (1) H9c2 cells are pre-incubated with alkaloid compound I for lh, then add 2.5 μM doxorubicin (DOX), incubate for 24 h. MTT colorimetric assay is used to determine the apoptotic activity of alkaloid compound I on DOX-induced cardiomyocytes and determine the optimal range of the dose concentration.

Row | Compound | Cleaved-Caspase-3 expression level compared with Con group (Cleaved-Caspase-3; DOX model group, DOX 24 h) | p-JNK expression level compared with Con group (p-JNK; DOX model group, DOX 24 h) | toxic effect on H9c2 cell viability compared with Con group (H9c2 cardiomyocytes [1]; 80 μM) | toxic effect on H9c2 cell viability compared with Con group (H9c2 cardiomyocytes [1]; 0.1-40 μM) | difference from DOX model group in DOX-induced cardiomyocyte toxicity (H9c2 cardiomyocytes [2]; 5-80 μM) | inhibition of DOX-induced cardiomyocyte toxicity compared with DOX model group (H9c2 cardiomyocytes [2]; different concentration ranges) | Cleaved-Caspase-3 expression level compared with DOX model group (Cleaved-Caspase-3; 10 μM, 20 μM and 40 μM, 1 h incubation, then DOX 24 h) | p-JNK expression level compared with DOX model group (p-JNK; high-dose 40 μM) | p-JNK expression level compared with DOX model group (p-JNK; low-dose 10 μM) | p-JNK expression level compared with DOX model group (p-JNK; moderate-dose 20 μM)
1 | COc1cccc2c1C(=O)c1c(O)c3c(c(O)c1C2=O)C[C@@](O)(C(=O)CO)C[C@@H]3O[C@H]1C[C@H](N)[C@H](O)[C@H](C)O1 [DOX, doxorubicin, reference compound] | significantly higher | significantly higher |  |  |  |  |  |  |  | 
2 | O=C(/C=C/c1ccc(O)cc1)NCCCCO [compound I, 4-[(E)-p-coumaroylamino]butan-1-ol] |  |  | significantly different compared with the Con group | not statistically different from the Con group | a significant difference or a highly significant difference | all exhibit inhibition of DOX-induced cardiomyocyte toxicity | able to inhibit the elevation of Cleaved-Caspase-3 level induced by DOX to varying degrees | a highly significant difference | no statistically significant difference | a highly significant difference
